The source of these data is patent publication US8022225B2, “Triazole derivative” (Taisho Pharmaceutical Co., Ltd, priority 2004, dated 2011).

Each structure is given as a SMILES string.

One assay deals with T1, human Edg-1(S1P1) (Homo sapiens, UniProt P21453).
T1 construct: expressed in transfected cells; host or cells: HEK-293
T1 sequence (P21453 whole entry): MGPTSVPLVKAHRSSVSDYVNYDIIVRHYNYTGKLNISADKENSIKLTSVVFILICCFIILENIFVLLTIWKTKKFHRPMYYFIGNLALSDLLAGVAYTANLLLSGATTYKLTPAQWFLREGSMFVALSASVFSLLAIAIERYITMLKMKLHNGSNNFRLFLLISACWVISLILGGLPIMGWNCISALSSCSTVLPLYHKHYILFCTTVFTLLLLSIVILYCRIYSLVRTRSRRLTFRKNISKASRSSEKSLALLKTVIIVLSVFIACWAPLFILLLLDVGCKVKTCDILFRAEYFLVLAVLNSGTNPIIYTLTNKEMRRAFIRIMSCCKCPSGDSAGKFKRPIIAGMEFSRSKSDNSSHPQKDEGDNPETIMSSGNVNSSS
Description: Cell system binding test: inhibition of [3H]-S1P binding to Edg-1(S1P1) gene transferred HEK-293 cells. Conditions: 10 μM compound, [3H]-S1P 10 nM, read-out: Cell system binding test % inhibition (10 μM). The procedure: Cells (1×10^5 cells/well) obtained as described above were seeded in poly-L-lysine-coated 96-well plates (Corning Incorporated), and then incubated in a 5% carbon dioxide gas incubator for 12 hours at 37° C. with the use of an MEM medium (Invitrogen Corporation) containing 100 U/mL of penicillin, 100 μg/mL of streptomycin, a 1% MEM nonessential amino acid solution, and 10% FCS. […] After the cells were washed twice with the buffer, they were solubilized with 100 μL of Opti Phase Supermix (produced by Perkin-Elmer), and measured for radioactivity by means of Micro Beta (produced by Perkin-Elmer).
Inhibition rate(%)=[1−(A−C)/(B−C)]×100
As usually defined, the inhibition is the relative decrease from the control value, in per cent. On to `CCn1c(OC)nnc1[C@@H](C)NS(=O)(=O)c1ccsc1` [Compound 342], for which the inhibition at 10 µM was determined as 88.4%. The same measure, in the same setting: under `CCn1c(OC)nnc1[C@@H](C)NS(=O)(=O)c1ccc(-c2cnco2)s1` [Compound 345] stands 88.5%. Consider `CCn1c(OC)nnc1[C@@H](C)NS(=O)(=O)c1ccc(-c2cnco2)cc1` [Compound 346], for which the inhibition at 10 µM was 38.5%.

For the compound `CCCCNC(=O)Nc1ccc(S(=O)(=O)N[C@H](C)c2nnc(OC)n2CC)cc1` [Compound 353], the inhibition at 10 µM came to 23.3%. On the same count and under the same terms, next, `CCn1c(OC)nnc1[C@@H](C)NS(=O)(=O)c1cccc(C(=O)c2ccncc2)c1` [Compound 357]: 85.6%; `CCn1c(OC)nnc1[C@@H](C)NS(=O)(=O)c1cccc(C(=O)c2ccccn2)c1` [Compound 358]: 79.6%. The same measure, in the same setting: under `CCn1c(OC)nnc1[C@@H](C)NS(=O)(=O)c1ccc(NC(=O)NC)c(Cl)c1` [Compound 362] stands 28.2%; under `CCn1c(OC)nnc1[C@@H](C)NS(=O)(=O)c1ccc2oc(=O)ccc2c1` [Compound 363], 100%; under `CCn1c(OC)nnc1[C@@H](C)NS(=O)(=O)c1ccc(Cl)c(S(N)(=O)=O)c1` [Compound 364], 27%. Same read-out and setting: next, `CCn1c(OC)nnc1[C@@H](C)NS(=O)(=O)c1ccccc1-c1ccccc1` [Compound 370]: 32.3%. `CCn1c(OC)nnc1[C@@H](C)NS(=O)(=O)c1cccnc1` [Compound 373]: the inhibition at 10 µM was determined as 73.4%. With `CCOc1nnc([C@@H](C)NS(=O)(=O)c2cccc(O)c2)n1CC` [Compound 419], the inhibition at 10 µM came out at 67.8%. On the same count and under the same terms, next, `CCn1c(OC)nnc1[C@@H](C)NS(=O)(=O)c1ncc(C)s1` [Compound 421]: 71.3%. On the same count and under the same terms, next, `CCn1c(OC)nnc1[C@@H](C)NS(=O)(=O)c1ccc(O)cc1` [Compound 422]: 47.5%. Same read-out and setting: next, `CCn1c(OC)nnc1[C@@H](C)NS(=O)(=O)c1nc(C)cs1` [Compound 423]: 59.2%; `CCn1c(OC)nnc1[C@@H](C)NS(=O)(=O)c1ccc(C)cn1` [Compound 424]: 58.7%; `CCn1c(OC)nnc1[C@@H](C)NS(=O)(=O)c1ccc(C)o1` [Compound 425]: 83.6%. Consider `CCOc1nnc([C@@H](C)NS(=O)(=O)c2cnc(C)s2)n1CC` [Compound 438], for which the inhibition at 10 µM is 82.2%. Regarding `CCn1c(OC)nnc1C(CCc1ccccc1)NS(=O)(=O)c1ccc(Cl)cc1` (stereo not drawn) [Compound 441], the inhibition at 10 µM was 14.7%. On the same count and under the same terms, under `CCn1c(OC)nnc1[C@@H](C)NS(=O)(=O)c1ccco1` [Compound 442] stands 40.2%.

Staying with this assay, now noted: test compound 10^-5 M, [3H]-S1P 10 nM, 1 hour, read-out: Edg-1(S1P1) binding inhibition rate (cell system binding test).
For the compound `CCn1c(OC)nnc1[C@@H](CO)NS(=O)(=O)c1ccc(Cl)cc1` [Compound 483], the inhibition at 10 µM was 88.9%. Still for that read-out and setting: next, `CCn1c(OC)nnc1[C@H](NS(=O)(=O)c1ccc(Cl)cc1)[C@H](C)O` [Compound 506]: 88.6%. With `CCn1c(OC)nnc1[C@@H](C)NS(=O)(=O)c1ccc(OC)cc1` [Compound 508], the inhibition at 10 µM was 100%. Same read-out and setting: next, `CCOc1nnc([C@@H](C)NS(=O)(=O)c2ccc(Cl)cc2)n1C` [Compound 540]: 96.3%.

The next assay addresses T1, human Edg-1(S1P1). Briefly: Membrane system binding test: inhibition of [33P]-S1P binding to the membrane fraction of Edg-1(S1P1) gene transferred HEK-293 cells. Conditions: 10 μM compound; [33P]-S1P 0.1 nM; membrane fraction of Edg-1(S1P1) gene transferred HEK-293 cells; read-out: Membrane system binding test % inhibition (10 μM). The procedure: The membrane fraction was obtained by treating the cells with a solubilizing buffer (1 mM Tris/HCl, pH 7.2) for 10 minutes on ice, centrifuging the system (1000×g, 5 min) to remove insoluble fractions, and then centrifuging the system (40000×g, 30 min, 4° C.). The resulting membrane fraction was dissolved in a binding buffer (20 mM Tris-HCl, pH 7.4, 100 mM NaCl, 15 mM NaF, 2 mM deoxypyridoxine, 4 mg/mL fatty acid-free BSA), and then [^33P]-S1P (produced by ARC, end concentration 0.1 nM) and a DMSO solution of the test compound (end concentration of the compound: 10^−5 M, end concentration of DMSO: 0.1%) were added, followed by stirring the mixture and subsequently treating it for 1 hour at 30° C. Using a harvester, the membrane fraction was harvested onto unifilter-96GF/C filter (produced by Perkin-Elmer). Then, the filter with the membrane fraction was washed 4 times with the binding buffer, and the filter was dried. To the filter, 25 μL Microscint 0 (produced by Perkin-Elmer) was added, and the assay system was measured for radioactivity by means of Top Count NXT (Packard). Based on the radioactivity, the amount (A) of binding of [^33P]-S1P to the membrane fraction upon addition of the compound was calculated.
The same procedure was performed in the absence of the test compound, and the amount (B) of binding of [^33P]-S1P was calculated. Moreover, the same procedure was performed in the absence of the test compound with the use of HEK-293 cells, to which the Edg-1(S1P1) gene had not been transferred, and the background amount (C) of binding of [^33P]-S1P was calculated.
The Edg-1(S1P1) binding inhibition rate of the compound, calculated from the following equation, is shown in […]
In the case of `CCCOc1nnc([C@H](C)NS(=O)(=O)c2ccc(Cl)cc2)n1CC` [Compound 184], the inhibition at 10 µM was determined as 44.4%.

In the case of `CCn1c(OC)nnc1[C@@H](C)NS(=O)(=O)c1ccc(C)nc1` [Compound 281], the inhibition at 10 µM was found to be 75.5%.

Staying with this assay, now noted: test compound 10^-5 M; [33P]-S1P 0.1 nM; 1 hour at 30° C.; HEK-293 membrane fraction.
With `CCCOc1nnc([C@@H](Cc2ccc(OC)cc2)NS(=O)(=O)c2ccc(Cl)c(Cl)c2)n1CC` [Compound 528], the “Edg-1(S1P1) binding inhibition rate (membrane system binding test)” value amounted to 94.0%.

Still in this assay, the particulars now being: test compound 10^-5 M; [33P]-S1P 0.1 nM; 1 hour at 30° C.; HEK-293 membrane fraction; read-out: Edg-1(S1P1) binding inhibition rate (membrane system binding test).
Consider `CCn1c(OC)nnc1[C@@H](Cc1ccccc1)NS(=O)(=O)c1ccc(Cl)c(Cl)c1` [Compound 507], for which the inhibition at 10 µM is 96.7%. Same read-out and setting: under `CCn1c(SC)nnc1C(Cc1ccc(C(F)(F)F)cc1)NS(=O)(=O)c1ccc(Cl)c(Cl)c1` (stereo not drawn) [Compound 518] stands 83.5%; under `CCn1c(SC)nnc1C(Cc1ccc(C)cc1)NS(=O)(=O)c1ccc(Cl)c(Cl)c1` (stereo not drawn) [Compound 523], 82.5%; under `CCn1c(SC)nnc1C(Cc1ccc(Cl)c(Cl)c1)NS(=O)(=O)c1ccc(Cl)c(Cl)c1` (stereo not drawn) [Compound 524], 75%.

With `CCCOc1nnc([C@@H](Cc2ccc(C)cc2)NS(=O)(=O)c2ccc(Cl)c(Cl)c2)n1CC` [Compound 525], the inhibition at 10 µM is 98%. Still for that read-out and setting: next, `CCCOc1nnc([C@@H](Cc2ccc(Cl)c(Cl)c2)NS(=O)(=O)c2ccc(Cl)c(Cl)c2)n1CC` [Compound 526]: 88.9%; `CCCOc1nnc([C@@H](Cc2ccc(OC)cc2)NS(=O)(=O)c2ccc(Cl)c(Cl)c2)n1CC` [Compound 527]: 89.7%; `CCCOc1nnc([C@@H](Cc2ccccc2)NS(=O)(=O)c2ccc(Cl)c(Cl)c2)n1CC` [Compound 529]: 100%. The same measure, in the same setting: next, `CCn1c(OCC(F)(F)F)nnc1C(Cc1ccccc1)NS(=O)(=O)c1ccc(Cl)c(Cl)c1` (stereo not drawn) [Compound 530]: 97.2%. On the same count and under the same terms, under `CCn1c(OC2CCC2)nnc1[C@@H](Cc1ccccc1)NS(=O)(=O)c1ccc(Cl)c(Cl)c1` [Compound 531] stands 100%; under `CCn1c([C@@H](C)NS(=O)(=O)c2ccc(Cl)c(Cl)c2)nnc1S(C)(=O)=O` [Compound 532], 53.8%; under `CCn1c(OC2CCCC2)nnc1[C@@H](Cc1ccccc1)NS(=O)(=O)c1ccc(Cl)c(Cl)c1` [Compound 533], 98.9%. As for `CCn1c(OC2CCCCC2)nnc1[C@@H](Cc1ccccc1)NS(=O)(=O)c1ccc(Cl)c(Cl)c1` [Compound 534], the inhibition at 10 µM turned out to be 98.3%. The same measure, in the same setting: next, `CCn1c(OCCCOC)nnc1[C@@H](Cc1ccccc1)NS(=O)(=O)c1ccc(Cl)c(Cl)c1` [Compound 535]: 102%; `CCOc1nnc([C@@H](Cc2ccccc2)NS(=O)(=O)c2ccc(Cl)c(Cl)c2)n1CC` [Compound 536]: 98.4%. On the same count and under the same terms, next, `CCn1c(OC(C)C)nnc1[C@@H](Cc1ccccc1)NS(=O)(=O)c1ccc(Cl)c(Cl)c1` [Compound 537]: 101%; `CCn1c(OCCCN2CCOCC2)nnc1[C@@H](Cc1ccccc1)NS(=O)(=O)c1ccc(Cl)c(Cl)c1` [Compound 538]: 103%; `CCn1c(OCC2CC2)nnc1[C@@H](Cc1ccccc1)NS(=O)(=O)c1ccc(Cl)c(Cl)c1` [Compound 545]: 101%. `CCn1c(OCc2ccccc2)nnc1[C@@H](Cc1ccccc1)NS(=O)(=O)c1ccc(Cl)c(Cl)c1` [Compound 546]: the inhibition at 10 µM was determined as 96.9%.

As to `CCn1c(OC)nnc1[C@@H](Cc1ccc(-c2ccccc2)cc1)NS(=O)(=O)c1ccc(Cl)c(Cl)c1` [Compound 547], the inhibition at 10 µM turned out to be 85.4%. The same measure, in the same setting: next, `CCn1c(OC)nnc1[C@@H](Cc1ccc(F)cc1)NS(=O)(=O)c1ccc(Cl)c(Cl)c1` [Compound 548]: 99.8%. On the same count and under the same terms, next, `CCn1c(OC)nnc1[C@@H](Cc1ccc(F)c(F)c1)NS(=O)(=O)c1ccc(Cl)c(Cl)c1` [Compound 549]: 99.7%.

Turning to `CCn1c(OC)nnc1[C@@H](Cc1ccccc1F)NS(=O)(=O)c1ccc(Cl)c(Cl)c1` [Compound 550], the inhibition at 10 µM came out at 98.6%. On the same count and under the same terms, next, `CCn1c(OC)nnc1[C@@H](Cc1cccc(F)c1)NS(=O)(=O)c1ccc(Cl)c(Cl)c1` [Compound 551]: 101%. Same read-out and setting: next, `CCn1c(OC)nnc1[C@@H](Cc1cc(F)cc(F)c1)NS(=O)(=O)c1ccc(Cl)c(Cl)c1` [Compound 552]: 97.3%. On the same count and under the same terms, next, `COc1nnc([C@@H](Cc2ccccc2)NS(=O)(=O)c2ccc(Cl)c(Cl)c2)n1C` [Compound 553]: 94.2%; `CCCn1c(OC)nnc1[C@@H](Cc1ccccc1)NS(=O)(=O)c1ccc(Cl)c(Cl)c1` [Compound 554]: 88%.
